From publication PMC7686313, “Phase 1 study of mTORC1/2 inhibitor sapanisertib (TAK-228) in advanced solid tumours, with an expansion phase in renal, endometrial or bladder cancer” (British Journal of Cancer, 2020)

Experiment: Safety (adverse events, NCI CTCAE v4.0), expansion phase
Settings: expansion Total (n = 82)
Text: Based on data collected during dose-escalation, the expansion phase evaluated the safety and efficacy of QD and QW sapanisertib in patients with RCC, endometrial or bladder cancer. Patients could continue receiving sapanisertib for ≤1 year (or beyond, if the investigator and sponsor agreed) in the absence of disease progression or unacceptable toxicity.
Patients who received ≥1 dose of sapanisertib were included in the safety population. The response-evaluable population included patients who received ≥1 dose of sapanisertib, had measurable disease at baseline, and had ≥1 postbaseline assessment. […] Adverse events (AEs) were assessed using the National Cancer Institute Common Terminology Criteria for Adverse Events, v4.0. Patients were provided with a home blood-glucose meter to monitor their fasting predose blood-glucose measurements to assess hyperglycaemia as an on-target AE and PD marker.

CC(C)n1nc(-c2ccc3oc(N)nc3c2)c2c(N)ncnc21 [Sapanisertib]
Abdominal pain, all-grade AE of any cause: 17 (21) n (%) | Abdominal pain, grade ≥3 AE of any cause: 3 (4) n (%) | Acute kidney injury, grade ≥3 AE of any cause: 4 (5) n (%) | Acute kidney injury, treatment-related AE: 6 (7) n (%) | Anaemia, all-grade AE of any cause: 19 (23) n (%) | Anaemia, grade ≥3 AE of any cause: 5 (6) n (%) | Anaemia, treatment-related AE: 12 (15) n (%) | Any AE: 82 (100) n (%) | Any AE resulting in dose modification/interruption: 55 (67) n (%) | Any AE resulting in treatment discontinuation: 12 (15) n (%) | Any SAE: 34 (41) n (%) | Any grade ≥3 AE: 58 (71) n (%) | Any treatment-related AE: 82 (100) n (%) | Any treatment-related SAE: 12 (15) n (%) | Any treatment-related grade ≥3 AE: 38 (46) n (%) | Arthralgia, all-grade AE of any cause: 11 (13) n (%) | Asthenia, grade ≥3 AE of any cause: 3 (4) n (%) | Asthenia, treatment-related AE: 12 (15) n (%) | Asthenia, treatment-related grade ≥3 AE: 2 (2) n (%) | Blood creatinine increased, all-grade AE of any cause: 14 (17) n (%) | Blood creatinine increased, treatment-related AE: 8 (10) n (%) | Constipation, all-grade AE of any cause: 28 (34) n (%) | Constipation, grade ≥3 AE of any cause: 2 (2) n (%) | Cough, all-grade AE of any cause: 22 (27) n (%) | Decreased appetite, all-grade AE of any cause: 41 (50) n (%) | Decreased appetite, treatment-related AE: 37 (45) n (%) | Dehydration, all-grade AE of any cause: 17 (21) n (%) | Dehydration, grade ≥3 AE of any cause: 3 (4) n (%) | Dehydration, treatment-related AE: 9 (11) n (%) | Dehydration, treatment-related grade ≥3 AE: 2 (2) n (%) | Depression, all-grade AE of any cause: 8 (10) n (%) | Diarrhoea, all-grade AE of any cause: 41 (50) n (%) | Diarrhoea, grade ≥3 AE of any cause: 3 (4) n (%) | Diarrhoea, treatment-related AE: 35 (43) n (%) | Diarrhoea, treatment-related grade ≥3 AE: 3 (4) n (%) | Dizziness, all-grade AE of any cause: 12 (15) n (%) | Dry mouth, all-grade AE of any cause: 15 (18) n (%) | Dry mouth, treatment-related AE: 10 (12) n (%) | Dysgeusia, all-grade AE of any cause: 17 (21) n (%) | Dysgeusia, treatment-related AE: 16 (20) n (%) | Dyspepsia, treatment-related AE: 6 (7) n (%) | Dyspnoea, grade ≥3 AE of any cause: 2 (2) n (%) | Fatigue, all-grade AE of any cause: 60 (73) n (%) | Fatigue, grade ≥3 AE of any cause: 11 (13) n (%) | Fatigue, treatment-related AE: 56 (68) n (%) | Fatigue, treatment-related grade ≥3 AE: 10 (12) n (%) | Haematuria, grade ≥3 AE of any cause: 2 (2) n (%) | Headache, all-grade AE of any cause: 12 (15) n (%) | Headache, treatment-related AE: 4 (5) n (%) | Hypercholesterolemia, treatment-related AE: 1 (1) n (%) | Hyperglycaemia, all-grade AE of any cause: 50 (61) n (%) | Hyperglycaemia, grade ≥3 AE of any cause: 13 (16) n (%) | Hyperglycaemia, treatment-related AE: 49 (60) n (%) | Hyperglycaemia, treatment-related grade ≥3 AE: 13 (16) n (%) | Hyperkalaemia, grade ≥3 AE of any cause: 2 (2) n (%) | Hypertension, grade ≥3 AE of any cause: 2 (2) n (%) | Hypokalaemia, grade ≥3 AE of any cause: 2 (2) n (%) | Hyponatremia, grade ≥3 AE of any cause: 3 (4) n (%) | Hypophosphatemia, grade ≥3 AE of any cause: 8 (10) n (%) | Hypophosphatemia, treatment-related AE: 9 (11) n (%) | Hypophosphatemia, treatment-related grade ≥3 AE: 6 (7) n (%) | Lymphopenia, grade ≥3 AE of any cause: 2 (2) n (%) | Lymphopenia, treatment-related grade ≥3 AE: 0 (0) n (%) | Musculoskeletal chest pain, grade ≥3 AE of any cause: 2 (2) n (%) | Nausea, all-grade AE of any cause: 54 (66) n (%) | Nausea, grade ≥3 AE of any cause: 5 (6) n (%) | Nausea, treatment-related AE: 51 (62) n (%) | Nausea, treatment-related grade ≥3 AE: 4 (5) n (%) | Oedema peripheral, all-grade AE of any cause: 15 (18) n (%) | On-study deaths: 3 (4) n (%) | Oropharyngeal pain, all-grade AE of any cause: 13 (16) n (%) | Pain in extremity, grade ≥3 AE of any cause: 3 (4) n (%) | Pneumonia, grade ≥3 AE of any cause: 2 (2) n (%) | Pruritus generalised, all-grade AE of any cause: 19 (23) n (%) | Pruritus generalised, treatment-related AE: 15 (18) n (%) | Pruritus generalised, treatment-related grade ≥3 AE: 1 (1) n (%) | Pruritus, all-grade AE of any cause: 15 (18) n (%) | Pruritus, treatment-related AE: 11 (13) n (%) | Pyrexia, all-grade AE of any cause: 14 (17) n (%) | Rash maculo-papular, all-grade AE of any cause: 24 (29) n (%) | Rash maculo-papular, grade ≥3 AE of any cause: 4 (5) n (%) | Rash maculo-papular, treatment-related AE: 17 (21) n (%) | Rash maculo-papular, treatment-related grade ≥3 AE: 3 (4) n (%) | Rash, treatment-related AE: 2 (2) n (%) | Rash, treatment-related grade ≥3 AE: 0 (0) n (%) | Sepsis, grade ≥3 AE of any cause: 2 (2) n (%) | Stomatitis (includes oropharyngeal pain and mucosal inflammation), treatment-related AE: 37 (45) n (%) | Stomatitis, all-grade AE of any cause: 40 (49) n (%) | Stomatitis, grade ≥3 AE of any cause: 4 (5) n (%) | Stomatitis, treatment-related grade ≥3 AE: 4 (5) n (%) | Thrombocytopenia, grade ≥3 AE of any cause: 4 (5) n (%) | Thrombocytopenia, treatment-related grade ≥3 AE: 4 (5) n (%) | Transitional cell carcinoma, grade ≥3 AE of any cause: 2 (2) n (%) | Urinary tract infection, all-grade AE of any cause: 15 (18) n (%) | Vomiting, all-grade AE of any cause: 43 (52) n (%) | Vomiting, grade ≥3 AE of any cause: 3 (4) n (%) | Vomiting, treatment-related AE: 41 (50) n (%) | Weight decreased, all-grade AE of any cause: 15 (18) n (%) | Weight decreased, treatment-related AE: 9 (11) n (%)
